Test results taken from US10899733B2, “Inhibitors of PARPs that catalyze mono-ADP-ribosylation” (OREGON HEALTH & SCIENCE UNIVERSITY, priority 2017, dated 2021).
pEC50, pIC50: −log10 of the molar value. Where two headings read alike, the source gives them in different places.

Key:
PARP10 = biological target: T1, PARP10 (Homo sapiens, UniProt Q53GL7); experiment: PARP10-dependent ADP-ribosylation in HEK293T cells expressing GFP-PARP10, Western blot with ADP-ribose binding reagent; format: cell-based; settings: for pEC50: GFP-PARP10, 22 at 1-100 μM for 3 h
T1 construct: Human embryonic kidney (HEK) 293T cells expressing full-length PARP10; expressed in transfected cells; host or cells: HEK293T
T1 sequence (Q53GL7 1-1025): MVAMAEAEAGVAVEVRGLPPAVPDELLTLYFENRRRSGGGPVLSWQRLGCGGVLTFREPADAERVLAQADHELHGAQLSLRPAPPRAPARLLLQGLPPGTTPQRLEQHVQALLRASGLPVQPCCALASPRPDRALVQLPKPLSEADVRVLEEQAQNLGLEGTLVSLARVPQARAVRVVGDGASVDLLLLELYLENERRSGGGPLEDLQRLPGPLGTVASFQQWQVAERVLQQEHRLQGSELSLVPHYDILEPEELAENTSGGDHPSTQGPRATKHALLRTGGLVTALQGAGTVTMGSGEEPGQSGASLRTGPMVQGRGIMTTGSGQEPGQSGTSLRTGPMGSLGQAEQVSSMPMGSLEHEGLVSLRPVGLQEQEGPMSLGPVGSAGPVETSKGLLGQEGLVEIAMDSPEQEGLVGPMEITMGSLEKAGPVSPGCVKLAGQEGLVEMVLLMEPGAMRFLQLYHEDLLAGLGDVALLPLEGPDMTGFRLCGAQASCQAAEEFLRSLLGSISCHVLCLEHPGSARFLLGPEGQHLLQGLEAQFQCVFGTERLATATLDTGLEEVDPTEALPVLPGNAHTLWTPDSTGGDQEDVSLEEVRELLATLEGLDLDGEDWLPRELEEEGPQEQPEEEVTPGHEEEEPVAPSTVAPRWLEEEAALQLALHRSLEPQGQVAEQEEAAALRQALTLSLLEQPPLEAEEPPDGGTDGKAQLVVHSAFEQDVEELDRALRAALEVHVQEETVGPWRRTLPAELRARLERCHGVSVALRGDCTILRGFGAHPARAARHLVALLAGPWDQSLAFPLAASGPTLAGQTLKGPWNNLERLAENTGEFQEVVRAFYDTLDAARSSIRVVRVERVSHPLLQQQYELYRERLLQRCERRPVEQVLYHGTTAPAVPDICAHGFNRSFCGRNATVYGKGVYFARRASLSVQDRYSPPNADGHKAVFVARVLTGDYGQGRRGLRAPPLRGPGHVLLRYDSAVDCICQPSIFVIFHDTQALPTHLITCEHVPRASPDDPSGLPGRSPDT
Method: We next determined if 22 could inhibit PARP10-dependent ADP-ribosylation in cells. […] Med. Chem. Lett. 25, pp. 4770-4773} Human embryonic kidney (HEK) 293T cells expressing full-length PARP10 were treated with increasing concentrations of 22 (1-100 μM). […] The EC50 value varies depending on the species quantified.
HEK293T cells were transfected with GFP-PARP10 and incubated with increasing concentrations of 22 (1-100 μM) for 3 h. Lysates were prepared and auto-ADP-ribosylation of PARP10 and its high molecular weight (HMW) targets were analyzed with an ADP-ribose binding reagent (α-APDr) (FIG. 2B) Quantification of data shown in FIG. 2(a).

PARP11 = biological target: T2, PARP11 (Homo sapiens, UniProt Q9NR21); experiment: Inhibition of PARP11-mediated ADP-ribosylation of SRPK2 using NAD+ (100 μM); format: biochemical; settings: ADP-ribosylation of SRPK2, NAD+ 100 μM
T2 sequence (Q9NR21 1-338): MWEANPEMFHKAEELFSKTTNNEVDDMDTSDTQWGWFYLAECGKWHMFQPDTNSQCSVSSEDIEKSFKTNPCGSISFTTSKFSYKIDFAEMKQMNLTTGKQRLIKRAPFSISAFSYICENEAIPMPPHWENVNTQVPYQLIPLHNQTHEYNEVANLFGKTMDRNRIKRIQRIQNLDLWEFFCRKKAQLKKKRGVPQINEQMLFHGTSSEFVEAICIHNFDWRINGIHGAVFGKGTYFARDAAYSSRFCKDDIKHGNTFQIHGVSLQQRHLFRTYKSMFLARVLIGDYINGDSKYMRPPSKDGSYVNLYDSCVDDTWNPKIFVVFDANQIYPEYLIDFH

PARP8 = biological target: T3, PARP8 (Homo sapiens, UniProt Q8N3A8); experiment: PARP panel: ADP-ribosylation of SRPK2 using 6-a-NAD+; format: biochemical
T3 sequence (Q8N3A8 1-854): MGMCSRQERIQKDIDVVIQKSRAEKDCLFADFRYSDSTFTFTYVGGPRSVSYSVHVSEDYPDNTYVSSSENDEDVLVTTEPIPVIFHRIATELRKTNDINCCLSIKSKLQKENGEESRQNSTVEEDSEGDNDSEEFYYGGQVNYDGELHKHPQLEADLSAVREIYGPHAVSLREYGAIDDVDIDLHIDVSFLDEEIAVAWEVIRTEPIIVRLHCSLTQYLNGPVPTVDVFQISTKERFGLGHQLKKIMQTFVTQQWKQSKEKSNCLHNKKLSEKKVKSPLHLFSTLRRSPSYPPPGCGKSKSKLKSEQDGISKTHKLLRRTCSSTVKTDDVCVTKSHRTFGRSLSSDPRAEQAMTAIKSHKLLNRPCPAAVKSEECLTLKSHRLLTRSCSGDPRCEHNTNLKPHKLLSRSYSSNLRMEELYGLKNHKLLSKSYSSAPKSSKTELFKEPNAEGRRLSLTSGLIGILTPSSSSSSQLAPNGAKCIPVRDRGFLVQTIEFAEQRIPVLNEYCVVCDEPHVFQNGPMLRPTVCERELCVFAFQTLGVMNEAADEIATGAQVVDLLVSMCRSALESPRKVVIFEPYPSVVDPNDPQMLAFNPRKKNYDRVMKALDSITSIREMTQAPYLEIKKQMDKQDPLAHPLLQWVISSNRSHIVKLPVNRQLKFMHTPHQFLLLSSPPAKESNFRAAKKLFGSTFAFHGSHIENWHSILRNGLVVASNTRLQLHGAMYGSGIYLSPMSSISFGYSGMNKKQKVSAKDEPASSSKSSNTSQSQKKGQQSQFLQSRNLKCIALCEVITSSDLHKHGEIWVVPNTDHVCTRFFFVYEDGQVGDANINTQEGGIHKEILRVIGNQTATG

PARP10cat = biological target: T4, PARP10cat (Homo sapiens, UniProt Q53GL7); experiment: Inhibition of PARP10cat-mediated ADP-ribosylation of SRPK2 using NAD+ (100 μM); format: biochemical
T4 sequence (Q53GL7 806-1025 limits assumed): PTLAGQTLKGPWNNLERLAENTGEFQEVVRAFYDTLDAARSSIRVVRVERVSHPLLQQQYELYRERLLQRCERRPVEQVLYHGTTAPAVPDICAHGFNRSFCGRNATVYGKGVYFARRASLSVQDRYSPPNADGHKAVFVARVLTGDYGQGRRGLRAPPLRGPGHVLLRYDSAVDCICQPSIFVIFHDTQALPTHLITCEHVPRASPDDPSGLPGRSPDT

Question: `Cc1c(-c2ccnc(C(F)(F)F)c2)ccc2c1CCNC2=O` [Compound 22, 5-methyl-6-(2-(trifluoromethyl)pyridin-4-yl)-3,4-dihydroisoquinolin-1(2H)-one] was tested. Which “inhibition of auto-ADP-ribosylation of PARP10 and PARP10-labeled targets in cells” value (PARP10; 1-100 μM) did it give?
Answer: The value was “dose-dependent manner”.

Question: What about the pEC50 (PARP10; read-out: EC50, PARP10 itself (auto-ADP-ribosylation)) of the same molecule?
Answer: Its pEC50 is 4.96.

Question: And the pEC50 (PARP10; read-out: EC50, PARP10 targets (HMW species))?
Answer: Its pEC50 is 5.64.

Question: What about the pIC50 (PARP11) of the same molecule?
Answer: Its pIC50 is 4.29.

Question: What about the “PARP11 pIC50 ± S.E.M.” value (PARP11) of the same molecule?
Answer: The value was 4.29 ± 0.04.

Question: And the pIC50 (PARP8; 6-a-NAD+)?
Answer: The pIC50 was under 4.52.

Question: What about the PARP/PARP10 (PARP8; PARP8 over PARP10cat) of the same molecule?
Answer: The PARP/PARP10 was over 10.

Question: And the “selectivity for PARP10 over PARP11” value (PARP10cat)?
Answer: Its value is 29 fold.

Question: What about the “improvement in selectivity for PARP10 over PARP11 compared to parent compound” value (PARP10cat; 12 vs 8, 14 vs 3, 20, 22 vs 16, 23, 24 vs 15) of the same molecule?
Answer: The value was about 2 fold.

Question: What about the “PARP10cat pIC50 ± S.E.M.” value (PARP10cat; ADP-ribosylation of SRPK2, NAD+ 100 μM) of the same molecule?
Answer: The value was 5.74 ± 0.02.

Question: What about the PARP11/PARP10 (PARP10cat; ratio of IC50 values, PARP11 over PARP10cat) of the same molecule?
Answer: The PARP11/PARP10 was 29.
